Source: patent publication US9878984B2, “Anti-cancer compounds” (NORTHWESTERN UNIVERSITY, priority 2008, dated 2018)

Test system: HeLa, PC-3M, and MDA-MB-231
Test: MTS growth inhibition assay, human cancer cell lines
Type: cell-based
Settings: 72 hr, MTS proliferation assay
Experimental: Cell Culture: HeLa (cervical carcinoma), WI-38 (normal human […] fibroblasts), and MDA-MB-231 (breast carcinoma), cells were cultured in DMEM (Invitrogen—Carlsbad, Calif.) and PC-3M (metastatic prostate carcinoma) cells were cultured in RPMI-1640. Peripheral blood mononuclear cells (PBMCs) were voluntarily collected from a healthy laboratory worker by standard sterile phlebotomy techniques and isolated using Vacutainer CPT collection tubes (BD Biosciences—Bedford, Mass.). PBMCs were isolated freshly for each experiment. All DMEM and RPMI-1640 media was supplemented with 10% FBS (Atlanta Biologicals—Lawrenceville, Ga.) and 100 U/mL penicillin and streptomycin (Invitrogen). […]
Growth Inhibition Assays: HeLa, MDA-MB-231, PC-3M, WI-38, and HUVEC cells were plated at 5,000 cells per well in 96 well plates and allowed to attach for 20 hr (8 hr for HeLa). […] Cell proliferation was measured at t=0 (time at start of treatment) and t=72 hr using MTS AQueous non-radioactive proliferation assay (Promega—Madison, Wis.). […] The absorbance at 490 nm in each well was read with a Spectramax 250 plate reader (Molecular Devices—Sunnyvale, Calif.). […] Data were fit to one site dose response curves in order to obtain specific growth inhibitory concentrations and the relative standard errors of the mean for these concentrations were calculated by the XLfit4 software. […]

CN(C)CCN1C(=O)c2cccc3c(N)ccc(c23)C1=O [A1, 6-amino-2-[2-(dimethylamino)ethyl]-1H-benz[de]isoquinoline-1,3(2H)-dione]
growth inhibition potency: near identical to amonafide
